According to PubChem BioAssay AID743095 (The Scripps Research Institute Molecular Screening Center, 2013):
Active and inactive are the calls of the source. How the calls were made is not given here.

target: Galanin receptor type 3 (Homo sapiens) (UniProt O60755); assay: human galanin receptor 3 blockers, IC50 – cell-based, fluorescence, dose response, late-stage follow-up (AID 743095); settings: GalR3 cell line, fluorescence antagonist assay

Question: `CNc1ccccc1C(C)(C)c1cc(-c2ccc(F)cc2)no1` was tested. Which IC50 did it give?
Answer: 3830 nM

Question: How did the IC50 turn out when `COc1ccc(CCNc2ncnc3sccc23)cc1OC` was run?
Answer: 438 nM

Question: How did the IC50 turn out when `Cc1[nH]c(=O)c(C#N)cc1-c1ccccc1` was run?
Answer: inactive

Question: `COc1cccc2[nH]c3c(N4CCC(C)CC4)ncnc3c12` was tested. Which IC50 did it give?
Answer: 2760 nM

Question: With `O=C(COc1ccc(C(=O)c2ccccc2)cc1)Nc1cccnc1` as the compound, how does the IC50 read?
Answer: 1240 nM

Question: Which IC50 does the source give for `O=C(Cc1ccc(Cl)cc1Cl)Nc1ccncc1Cl` here?
Answer: 3890 nM

Question: `O=C(Nc1nc(-c2ccc(Cl)cc2Cl)cs1)c1ccc(OCC2CCCO2)cc1` (configuration not stated) was tested. Which IC50 did it give?
Answer: 1080 nM

Question: `N#Cc1cc(-c2ccccc2)oc1NC(=O)c1ccco1` was tested. Which IC50 did it give?
Answer: inactive

Question: With `CC(C)(C)CN1CCN(Cc2nc(-c3ccc(F)cc3)cs2)CC1CCO` (configuration not stated) as the compound, how does the IC50 read?
Answer: 3240 nM

Question: Which IC50 does the source give for `O=C(CSc1nnnn1C1CC2CCC1C2)Nc1ccnc2ccccc12` (configuration not stated) here?
Answer: 140 nM

Question: How did the IC50 turn out when `COc1ccc(NS(=O)(=O)c2ccc(NC(=O)c3ccc(CN4CCOCC4)cc3)cc2)cc1` was run?
Answer: 3000 nM

Question: Which IC50 does the source give for `Cc1nc2ccccc2n1Cc1ccc(Cl)cc1` here?
Answer: 1260 nM

Question: Which IC50 does the source give for `O=S(=O)(NCc1ccncc1)c1ccc(Br)s1` here?
Answer: 1800 nM

Question: For `CC1CC(=O)NN=C1c1ccc(N)c([N+](=O)[O-])c1` (configuration not stated), which IC50 is on record?
Answer: 596 nM

Question: For `Cc1cc(C)nc(SCC(=O)Nc2ccnc3ccccc23)n1`, which IC50 is on record?
Answer: 1170 nM

Question: `CCCCCn1c(=O)[nH]c2cc(C(=O)N3CCN(Cc4ccc5c(c4)OCO5)CC3)ccc2c1=O` was tested. Which IC50 did it give?
Answer: 143 nM

Question: With `CCCOC(=O)c1ccc(OCC(O)Cn2c(C)nc3ccccc32)cc1` (configuration not stated) as the compound, how does the IC50 read?
Answer: 3270 nM

Question: `Cc1cc(CSc2ccccc2)ccc1NC(=O)c1ccc(CN2CCOCC2)cc1` was tested. Which IC50 did it give?
Answer: 529 nM

Question: How did the IC50 turn out when `CC1(C)CC2CC(C)(CN2S(=O)(=O)c2ccc(C(=O)Nc3cccc(S(=O)(=O)N4CCOCC4)c3)cc2)C1` (configuration not stated) was run?
Answer: 2110 nM

Question: Which IC50 does the source give for `CC(C)(C)c1ccc(C(=O)Nc2ccc(Oc3cccnc3)nc2)cc1` here?
Answer: 1140 nM

Question: `Cc1cc(C(=O)CSc2nc(N)cc(=O)[nH]2)c(C)n1-c1ccc(OC(F)F)cc1` was tested. Which IC50 did it give?
Answer: 1350 nM

Question: With `CCN(CC)S(=O)(=O)c1cc(NC(=O)CNc2cccc(S(=O)(=O)N3CCOCC3)c2)ccc1C` as the compound, how does the IC50 read?
Answer: 3560 nM

Question: With `Cc1cccc(Cl)c1NC(=O)N1CCCN(c2nc3ccc(Cl)cc3s2)CC1` as the compound, how does the IC50 read?
Answer: 1950 nM

Question: With `Cc1nn(C)c(C)c1CN(C)S(=O)(=O)c1ccc2ccccc2c1` as the compound, how does the IC50 read?
Answer: 1230 nM

Question: With `Fc1ccc(NC(=S)N2CCCN(c3ccc(C(F)(F)F)cn3)CC2)c(F)c1` as the compound, how does the IC50 read?
Answer: 402 nM

Question: For `Cn1nc(C(C)(C)C)cc1C(=O)NCc1ccc(N2CCCC2=O)cc1`, which IC50 is on record?
Answer: 5270 nM

Question: How did the IC50 turn out when `COc1cc(CSc2nnnn2-c2ccc(C)cc2)cc(OC)c1OC` was run?
Answer: 3440 nM

Question: For `CC(C)(C)c1ccc(-n2ncc3c2CCCC3NC(=O)C2(C(N)=O)CC2)cc1` (configuration not stated), which IC50 is on record?
Answer: 2000 nM

Question: Which IC50 does the source give for `NC(=O)c1c(-c2ccc(Cl)cc2Cl)csc1NC(=O)Cc1ccccc1` here?
Answer: 2370 nM

Question: How did the IC50 turn out when `Nc1cc(-c2ccc(Br)cc2)nn1Cc1ccccc1` was run?
Answer: 3620 nM

Question: For `CC(=O)c1c(C)[nH]c(C(=O)COc2cc(C)ccc2C(C)C)c1C`, which IC50 is on record?
Answer: 3580 nM

Question: For `CC(=O)c1cn(CC(=O)NCCc2c[nH]c3ccccc23)c2ccccc12`, which IC50 is on record?
Answer: 4140 nM

Question: With `CCOC(=O)c1[nH]c2ccc(OC)cc2c1NS(=O)(=O)c1ccc(Cl)s1` as the compound, how does the IC50 read?
Answer: 3140 nM

Question: With `Cc1ccccc1Cn1c(C)nc2ccccc21` as the compound, how does the IC50 read?
Answer: 3410 nM

Question: Which IC50 does the source give for `O=C(CSc1nnc(Cn2nnc3ccccc32)o1)N(Cc1ccc(F)cc1)c1ccccc1` here?
Answer: 1240 nM

Question: For `CCCOc1ccc(CSc2nc3ccccc3[nH]2)cc1`, which IC50 is on record?
Answer: 1200 nM

Question: For `CCOc1cc(S(=O)(=O)NCc2ccncc2)ccc1Cl`, which IC50 is on record?
Answer: 269 nM

Question: With `COc1ccc(CN2CCC(C(=O)Nc3ccc(Oc4ccccc4)nc3)CC2)cc1F` as the compound, how does the IC50 read?
Answer: 6970 nM

Question: How did the IC50 turn out when `CCOc1nc(C#N)nc(N2CCCCC2)n1` was run?
Answer: 2820 nM

Question: With `Cc1ccccc1-c1cc(C(=O)Nc2sc(C(=O)OC(C)C)c(C)c2C#N)c2ccccc2n1` as the compound, how does the IC50 read?
Answer: 1130 nM

Question: `Nc1nonc1-n1nnc(C(=O)N/N=C/c2cc(Br)ccc2O)c1CSC1=NCCS1` was tested. Which IC50 did it give?
Answer: 6280 nM

Question: Which IC50 does the source give for `COc1ccc(OC)c(CCNC(=O)Cn2nc(C)c3c(C)n(-c4ccc(C)cc4)nc3c2=O)c1` here?
Answer: 3800 nM

Question: For `S=C(NCCc1ccccc1)Nc1cccc2cnccc12`, which IC50 is on record?
Answer: 2620 nM

Question: `Cc1nn(C)c(Nc2ccc(Br)cc2)c1Br` was tested. Which IC50 did it give?
Answer: 4140 nM

Question: With `Cc1nn(C)c(Cl)c1NC(=O)OCc1ccc(Cl)cc1Cl` as the compound, how does the IC50 read?
Answer: 4160 nM

Question: `CC(=O)c1ccc(N2CCN(C(=S)Nc3ccc(Oc4ccccc4)cc3)CC2)cc1` was tested. Which IC50 did it give?
Answer: 1230 nM

Question: For `CCOC(=O)Cc1csc(NC(=O)c2cc(=O)c3ccccc3o2)n1`, which IC50 is on record?
Answer: 5810 nM

Question: With `COc1ccc(-n2c(C)cc(C(=O)COC(=O)Cn3cnc4ccccc43)c2C)cc1` as the compound, how does the IC50 read?
Answer: > 29900 nM (inactive)

Question: `Cc1oc(-c2ccc(Cl)cc2)nc1CSCC(=O)NC1CCN(Cc2ccccc2)CC1` was tested. Which IC50 did it give?
Answer: 1320 nM

Question: With `Cc1ccc(Oc2ccc(OCC(=O)Nc3ccncc3)cc2)cc1` as the compound, how does the IC50 read?
Answer: 428 nM

Question: With `COc1ccc(C(=O)CSc2nnc(Cn3cnc4ccccc43)o2)cc1` as the compound, how does the IC50 read?
Answer: 3180 nM

Question: `NC(=O)c1nnn(Cc2cc(Cl)c(C(=O)c3ccc(Cl)cc3)c(Cl)c2)c1N` was tested. Which IC50 did it give?
Answer: 3440 nM

Question: How did the IC50 turn out when `CSc1ccc(C(=O)C2CCCN(C(=O)CCc3c(C)nn(C)c3C)C2)cc1` (configuration not stated) was run?
Answer: 4150 nM

Question: For `COc1ccc(CN(C)c2ccc(S(=O)(=O)N3CCN(C)CC3)cc2[N+](=O)[O-])cc1OC`, which IC50 is on record?
Answer: 448 nM

Question: For `COc1cc2c(cc1OC)[C@@H]1C(=O)c3ccc4c(c3O[C@@H]1CO2)C[C@H](C(C)C)O4`, which IC50 is on record?
Answer: 12.3 nM

Question: Which IC50 does the source give for `CCCCc1ccc(NC(=O)c2ccc(N(C)S(C)(=O)=O)cc2)cc1` here?
Answer: 696 nM

Question: With `CC(C)(C)NC(=O)COC(=O)c1snc(C(=O)NC2CCCCC2)c1N` as the compound, how does the IC50 read?
Answer: 3190 nM
